Experimental data from paper PMC13192270, “RhlR quorum-sensing receptor ligand sensitivity regulates the differential expression of phenazine genes in Pseudomonas aeruginosa” (Journal of Bacteriology, 2026).

Molecular target: T1, RhlR T58L in ΔrhlI strain (Pseudomonas aeruginosa, UniProt P54292, T58L)
T1 construct: expressed in transfected cells; host or cells: P. aeruginosa UCBPP-PA14 ΔrhlI, mutant allele placed on the chromosome at the native rhlR locus
T1 sequence (P54292 1-241 T58L): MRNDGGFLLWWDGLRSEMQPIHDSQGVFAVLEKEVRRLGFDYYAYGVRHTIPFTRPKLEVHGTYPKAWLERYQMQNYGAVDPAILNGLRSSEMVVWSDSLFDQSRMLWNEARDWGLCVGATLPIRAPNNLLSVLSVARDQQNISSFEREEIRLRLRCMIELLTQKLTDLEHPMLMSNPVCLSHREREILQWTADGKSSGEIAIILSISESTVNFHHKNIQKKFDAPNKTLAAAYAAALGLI
Test: ChIP-seq of RhlR-binding sites
Type: cell-based
Conditions: 2 µM C4HSL
Excerpt: To determine the molecular basis for lower levels of phz gene expression in a background that expressed a hypersensitive variant of RhlR, we assessed expression of the pqsABCDE operon ([51]). PqsE is required for optimal expression of the phz genes and, thus, pyocyanin production. RhlR was previously characterized as a repressor of the pqsABCDE operon. We hypothesized that a C4HSL hypersensitive variant would repress pqsABCDE expression, which could lead to the observed decrease in phz gene expression. Indeed, pqsA RNA levels were 20% lower in a strain expressing RhlR T58L compared to WT RhlR (Fig. 6A; Table 2). To confirm that the decrease in gene expression led to a decrease in the available PqsE protein that was capable of interacting with RhlR to specifically drive it to the phz promoter, we performed western blot analyses to measure PqsE protein levels in strains expressing RhlR variants (Fig. 7A). […] Thus, we hypothesized that when PqsE levels fall below a certain concentration, PqsE homodimerization cannot occur, thereby preventing PqsE-RhlR complex formation and reducing promoter occupancy. […] We highlight phzA1 and phzM, which share a promoter (Fig. S10A), rhlA (Fig. S10B), and lecB (Fig. S10C) because of the role of the phz and rhlA promoters in regulating pyocyanin and rhamnolipid production (Fig. 5) and because lecB is a well-characterized PqsE-dependent promoter ([37]). As expected, RhlR T58L had lower promoter occupancy than WT RhlR at the phzA1 promoter, likely due to the lower levels of PqsE present (Fig. 7B; Fig. S10A). Conversely, RhlR occupancy at the rhlA promoter was nearly unchanged from WT RhlR (Fig. 7B; Fig. S10B), reflecting the ability of RhlR to bind the promoter primarily through its dependency on C4HSL.
P. aeruginosa strains were grown overnight, back diluted 1:100 in fresh LB media, and grown to an OD600 = 2.0. Crosslinking, lysis, and immunoprecipitation were performed as previously described ([37]).

With `CCCC(=O)N[C@H]1CCOC1=O` [C4HSL, N-butyryl-L-homoserine lactone] the “ChIP-seq enrichment at PA14_01490 (rahU) (peak 139,733)” value was 1,262.3, the “ChIP-seq enrichment at PA14_06320 (peak 560,072)” value was 896.4 and the “ChIP-seq enrichment at PA14_10360 (peak 895,433)” value was 513.5. The “ChIP-seq enrichment at PA14_16100*, PA14_16110 (peak 1,372,370)” value was 1,439.9, the “ChIP-seq enrichment at PA14_18800 (peak 1,620,628)” value was 405.8 and the “ChIP-seq enrichment at PA14_18810 operon (peak 1,621,028)” value was 87.2. The “ChIP-seq enrichment at PA14_20130, PA14_20140 (fpr) (peak 1,735,823)” value was 380.5, the “ChIP-seq enrichment at PA14_21020 (azeB) operon, PA14_21030 (peak 1,816,906)” value was 3,188.5 and the “ChIP-seq enrichment at PA14_22090 (peak 1,921,598)” value was 349.8. For the same molecule, the “ChIP-seq enrichment at PA14_28250*, PA14_28260 (peak 2,444,398)” value was 159.5, the “ChIP-seq enrichment at PA14_29620, fhp operon (peak 2,568,048)” value was 2,263.3 and the “ChIP-seq enrichment at PA14_30570, PA14_30580 (vqsR) (peak 2,647,472)” value was 554.8. The “ChIP-seq enrichment at PA14_30840* (peak 2,677,542)” value was 4,222.3, the “ChIP-seq enrichment at PA14_37745 operon (peak 3,364,761)” value was 433.4 and the “ChIP-seq enrichment at PA14_48140 operon (peak 4,285,523)” value was 340.9. The “ChIP-seq enrichment at PA14_48530 operon (peak 4,313,855)” value was 867.6, the “ChIP-seq enrichment at PA14_49310 (peak 4,382,169)” value was 673.4 and the “ChIP-seq enrichment at PA14_49740, PA14_49750 operon (peak 4,425,570)” value was 2,142.3. The “ChIP-seq enrichment at PA14_57970*, PA14_57980 (peak 5,159,548)” value was 228.8, the “ChIP-seq enrichment at PA14_59180* (peak 5,268,881)” value was 216.4 and the “ChIP-seq enrichment at PA_48530* (peak 4,314,560)” value was 229. The “ChIP-seq enrichment at arcD operon (peak 6,093,032)” value was 900.8, the “ChIP-seq enrichment at hcnA operon, exoY (peak 3,236,436)” value was 1,543.7 and the “ChIP-seq enrichment at hsiA2 operon, hcpD (peak 3,831,541)” value was 1,100.7. The “ChIP-seq enrichment at lasA (peak 3,600,666)” value was 211.7, the “ChIP-seq enrichment at lasB (peak 1,387,361)” value was 347.7 and the “ChIP-seq enrichment at lecB, PA14_20620 operon (peak 1,774,336)” value was 13,604.8. For the same molecule, the “ChIP-seq enrichment at pa1L (peak 2,721,761)” value was 171.4, the “ChIP-seq enrichment at peak 5,414,219” value was 697 and the “ChIP-seq enrichment at phzA1 operon, phzM (peak 813,529)” value was 2,515.8. The “ChIP-seq enrichment at phzA2 operon (peak 3,561,969)” value was 562.6, the “ChIP-seq enrichment at phzB1*, phzC1 (peak 812,427)” value was 968.1 and the “ChIP-seq enrichment at phzB2*, phzC2 (peak 3,561,157)” value was 75.06. The “ChIP-seq enrichment at phzH (peak 64,211)” value was 800.4, the “ChIP-seq enrichment at rhlA operon (peak 1,648,391)” value was 3,584.5 and the “ChIP-seq enrichment at rhlI (peak 1,651,804)” value was 263.1. For the same molecule, the “ChIP-seq enrichment at rmlB operon (peak 6,082,366)” value was 2,634, the “ChIP-seq enrichment at rpsL operon (peak 754,615)” value was 416.1 and the “ChIP-seq enrichment at tnpS, tnpT operon (peak 3,188,223)” value was 237.1.
